We go through 29 molecules from US9302991B2, “Arylamide derivatives as TTX-S blockers” (RaQualia Pharma Inc., priority 2010, dated 2016).

pIC50: −log10 of the molar value.

One test concerns the target T1, human Nav1.3 channels (Homo sapiens, UniProt Q9NY46).
T1 construct: expressed in transfected cells; host or cells: HEK293
Kind of test: FRET assay, human Nav1.3 (EFS on FDSS). Type of test: cell-based. Particulars: HEK293 cells expressing human Nav1.3, read-out: IC50 against Nav1.3. The method in brief: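 HEK293 cells expressing the channel, loaded with 10 microM CC2-DMPE then 15 microM DiSBAC2(3) plus 0.555 mM VABSC-1 in pH 7.4 HEPES buffer at room temperature. Membrane potential changes evoked by electrical field stimulation after compound addition; IC50 from 440 nm-normalized FRET ratios.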

The next test concerns the target T2, human Nav1.7 channels (Homo sapiens, UniProt Q15858).
T2 construct: expressed in transfected cells; host or cells: CHO
Kind of test: FRET assay, human Nav1.7 (EFS on FDSS). Type of test: cell-based. Particulars: CHO cells expressing human Nav1.7, read-out: IC50 against Nav1.7. Put shortly: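 CHO cells stably expressing the channel, loaded with CC2-DMPE (10 µM) then DiSBAC2(3) (15 µM) plus VABSC-1, in HEPES-buffered saline pH 7.4 at room temperature. Electrical field stimulation on FDSS; FRET ratio at 440 nm fitted for IC50.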

T1 sequence (Q9NY46 whole entry): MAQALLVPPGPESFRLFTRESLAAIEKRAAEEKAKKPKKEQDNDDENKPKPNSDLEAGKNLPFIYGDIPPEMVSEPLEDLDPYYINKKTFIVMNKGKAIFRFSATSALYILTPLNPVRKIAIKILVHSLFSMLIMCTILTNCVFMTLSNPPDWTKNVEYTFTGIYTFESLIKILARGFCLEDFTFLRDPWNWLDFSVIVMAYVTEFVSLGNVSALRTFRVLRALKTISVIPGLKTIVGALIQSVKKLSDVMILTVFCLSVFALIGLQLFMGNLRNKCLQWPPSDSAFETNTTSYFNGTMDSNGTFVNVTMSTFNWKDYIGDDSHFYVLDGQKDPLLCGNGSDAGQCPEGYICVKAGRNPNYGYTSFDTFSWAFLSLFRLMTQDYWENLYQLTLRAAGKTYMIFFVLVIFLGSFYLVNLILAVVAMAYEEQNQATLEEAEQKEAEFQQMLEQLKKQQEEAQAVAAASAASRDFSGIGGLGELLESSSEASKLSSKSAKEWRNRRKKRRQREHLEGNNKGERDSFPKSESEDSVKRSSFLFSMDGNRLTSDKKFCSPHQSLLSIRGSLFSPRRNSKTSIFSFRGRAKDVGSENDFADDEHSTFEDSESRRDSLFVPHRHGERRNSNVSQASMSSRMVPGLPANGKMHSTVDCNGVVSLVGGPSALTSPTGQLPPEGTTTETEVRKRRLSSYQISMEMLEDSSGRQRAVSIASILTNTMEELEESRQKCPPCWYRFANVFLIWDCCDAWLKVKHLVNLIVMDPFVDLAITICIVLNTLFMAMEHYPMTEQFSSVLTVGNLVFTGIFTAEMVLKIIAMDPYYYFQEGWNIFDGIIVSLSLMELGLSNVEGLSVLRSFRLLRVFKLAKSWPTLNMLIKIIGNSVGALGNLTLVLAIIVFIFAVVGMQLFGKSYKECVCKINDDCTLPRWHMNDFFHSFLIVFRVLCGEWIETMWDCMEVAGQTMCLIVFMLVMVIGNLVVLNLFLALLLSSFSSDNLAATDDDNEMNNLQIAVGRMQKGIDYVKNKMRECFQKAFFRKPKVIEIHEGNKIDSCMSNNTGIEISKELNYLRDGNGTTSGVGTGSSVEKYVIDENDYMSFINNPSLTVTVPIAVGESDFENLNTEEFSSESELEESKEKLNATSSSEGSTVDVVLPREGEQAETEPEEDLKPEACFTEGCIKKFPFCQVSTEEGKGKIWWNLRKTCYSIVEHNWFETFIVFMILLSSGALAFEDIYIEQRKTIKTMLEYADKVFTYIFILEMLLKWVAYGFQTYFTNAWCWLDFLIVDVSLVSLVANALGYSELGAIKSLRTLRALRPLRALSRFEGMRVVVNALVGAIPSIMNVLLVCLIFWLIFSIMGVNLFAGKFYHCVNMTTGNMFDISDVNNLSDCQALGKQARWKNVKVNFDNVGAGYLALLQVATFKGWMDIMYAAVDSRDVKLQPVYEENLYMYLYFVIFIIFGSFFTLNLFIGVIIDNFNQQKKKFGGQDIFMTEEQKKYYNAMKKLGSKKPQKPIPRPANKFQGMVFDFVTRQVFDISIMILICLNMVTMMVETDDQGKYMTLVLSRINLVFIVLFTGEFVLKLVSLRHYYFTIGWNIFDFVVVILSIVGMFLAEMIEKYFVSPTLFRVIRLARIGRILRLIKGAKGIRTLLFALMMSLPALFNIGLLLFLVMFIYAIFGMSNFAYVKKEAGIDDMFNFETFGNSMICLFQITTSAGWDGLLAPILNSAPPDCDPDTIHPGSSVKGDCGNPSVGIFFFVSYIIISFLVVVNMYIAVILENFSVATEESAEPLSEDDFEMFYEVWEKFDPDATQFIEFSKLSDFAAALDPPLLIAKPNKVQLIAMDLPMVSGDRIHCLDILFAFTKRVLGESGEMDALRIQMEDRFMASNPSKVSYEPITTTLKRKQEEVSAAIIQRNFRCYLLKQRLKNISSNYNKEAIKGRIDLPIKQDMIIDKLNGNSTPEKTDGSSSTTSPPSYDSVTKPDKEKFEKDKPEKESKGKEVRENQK
T2 sequence (Q15858 whole entry): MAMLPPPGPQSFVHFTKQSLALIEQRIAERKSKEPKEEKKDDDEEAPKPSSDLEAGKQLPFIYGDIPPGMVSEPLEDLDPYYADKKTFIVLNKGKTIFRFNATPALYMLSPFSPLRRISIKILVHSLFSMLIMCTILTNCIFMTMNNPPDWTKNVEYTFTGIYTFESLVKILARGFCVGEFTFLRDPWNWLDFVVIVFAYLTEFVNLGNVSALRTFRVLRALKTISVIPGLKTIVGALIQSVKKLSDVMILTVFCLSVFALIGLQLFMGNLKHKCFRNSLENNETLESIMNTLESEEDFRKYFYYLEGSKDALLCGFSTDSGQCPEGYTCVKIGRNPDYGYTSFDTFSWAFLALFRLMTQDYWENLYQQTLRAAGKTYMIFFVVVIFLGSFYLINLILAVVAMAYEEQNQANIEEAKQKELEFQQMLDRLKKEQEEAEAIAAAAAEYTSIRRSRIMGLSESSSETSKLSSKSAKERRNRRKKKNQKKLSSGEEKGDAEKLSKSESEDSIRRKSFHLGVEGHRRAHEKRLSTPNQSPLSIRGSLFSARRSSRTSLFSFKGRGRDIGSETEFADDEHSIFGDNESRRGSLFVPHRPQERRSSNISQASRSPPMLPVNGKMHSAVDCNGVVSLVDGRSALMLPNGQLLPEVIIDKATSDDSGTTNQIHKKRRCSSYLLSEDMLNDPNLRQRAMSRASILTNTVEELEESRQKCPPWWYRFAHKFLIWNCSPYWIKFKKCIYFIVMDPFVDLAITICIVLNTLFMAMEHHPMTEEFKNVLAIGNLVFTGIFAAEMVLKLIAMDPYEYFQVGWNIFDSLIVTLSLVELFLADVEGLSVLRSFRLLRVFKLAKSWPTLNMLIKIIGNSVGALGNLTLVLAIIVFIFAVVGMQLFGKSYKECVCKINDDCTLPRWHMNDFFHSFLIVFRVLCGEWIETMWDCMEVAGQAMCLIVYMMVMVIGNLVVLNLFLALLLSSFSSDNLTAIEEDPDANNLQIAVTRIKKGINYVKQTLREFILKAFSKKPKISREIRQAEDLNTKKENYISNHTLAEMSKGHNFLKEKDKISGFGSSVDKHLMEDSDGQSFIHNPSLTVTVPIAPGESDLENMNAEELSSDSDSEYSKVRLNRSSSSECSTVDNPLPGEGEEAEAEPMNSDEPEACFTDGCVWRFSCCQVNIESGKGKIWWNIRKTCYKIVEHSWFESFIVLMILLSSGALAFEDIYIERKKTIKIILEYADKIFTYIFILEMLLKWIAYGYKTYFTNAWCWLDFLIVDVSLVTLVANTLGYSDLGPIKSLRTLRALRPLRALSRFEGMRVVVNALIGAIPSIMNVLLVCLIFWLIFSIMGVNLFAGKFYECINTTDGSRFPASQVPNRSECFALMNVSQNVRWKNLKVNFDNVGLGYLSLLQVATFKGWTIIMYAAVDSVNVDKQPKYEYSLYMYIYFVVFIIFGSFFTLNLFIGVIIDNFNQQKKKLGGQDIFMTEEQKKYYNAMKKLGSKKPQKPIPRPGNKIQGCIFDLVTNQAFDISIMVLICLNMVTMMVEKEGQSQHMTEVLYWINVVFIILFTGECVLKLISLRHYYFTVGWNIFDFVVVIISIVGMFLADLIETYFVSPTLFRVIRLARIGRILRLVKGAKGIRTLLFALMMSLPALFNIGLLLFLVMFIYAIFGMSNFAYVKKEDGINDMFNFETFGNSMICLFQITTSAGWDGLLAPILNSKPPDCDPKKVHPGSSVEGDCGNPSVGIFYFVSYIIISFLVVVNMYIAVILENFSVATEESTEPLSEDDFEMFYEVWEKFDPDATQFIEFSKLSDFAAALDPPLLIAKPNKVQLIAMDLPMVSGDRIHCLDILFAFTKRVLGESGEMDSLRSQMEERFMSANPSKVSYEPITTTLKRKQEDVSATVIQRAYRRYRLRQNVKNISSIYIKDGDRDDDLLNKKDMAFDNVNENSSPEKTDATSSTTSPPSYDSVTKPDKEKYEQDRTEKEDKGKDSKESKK

On to `CC(C)C(=O)Nc1cc(C(=O)NCc2cccc(OC(F)(F)F)c2)ccn1` [Example 527, 2-isobutyramido-N-(3-(trifluoromethoxy)benzyl)isonicotinamide], for which the pIC50 at human Nav1.3 channels and at human Nav1.7 channels was above 6.00 each time.
For the molecule `Cc1cc(C(=O)NCc2cnc(OCC(F)(F)F)c(C)c2)cc(NC(=O)C2CC2)n1` [Example 824, 2-(cyclopropanecarboxamido)-6-methyl-N-((5-methyl-6-(2,2,2-trifluoroethoxy)pyridin-3-yl)methyl)isonicotinamide], the pIC50 at human Nav1.3 channels and on human Nav1.7 channels was above 6.00 throughout.
For `COc1nc(OCC(F)(F)F)ccc1CNC(=O)c1ccnc(NC(=O)C(C)C)c1` [Example 171, 2-isobutyramido-N-((2-methoxy-6-(2,2,2-trifluoroethoxy)pyridin-3-yl)methyl)isonicotinamide], the pIC50 at human Nav1.3 channels and at human Nav1.7 channels was above 6.00 each time.
Regarding `CCOc1nc(OCC(F)(F)F)ccc1CNC(=O)c1cc(C)nc(NC(=O)CC)n1` [Example 359, N-((2-ethoxy-6-(2,2,2-trifluoroethoxy)pyridin-3-yl)methyl)-6-methyl-2-propionamidopyrimidine-4-carboxamide], the negative logarithm of the IC50 (pIC50) on human Nav1.3 channels and on human Nav1.7 channels was above 6.00 each time.
On to `CCC(=O)Nc1cc(C(=O)NCc2cccc(OC(F)(F)F)c2)ccn1` [Example 523, 2-propionamido-N-(3-(trifluoromethoxy)benzyl)isonicotinamide], for which the pIC50 at human Nav1.3 channels and on human Nav1.7 channels was above 6.00 each time.
Take `O=C(NCc1cnc(OCC(F)(F)F)c(Cl)c1)c1ccnc(NC(=O)C2CC2)n1` [Example 411, N-((5-chloro-6-(2,2,2-trifluoroethoxy)pyridin-3-yl)methyl)-2-(cyclopropanecarboxamido)pyrimidine-4-carboxamide]: the negative logarithm of the IC50 (pIC50) at human Nav1.3 channels and on human Nav1.7 channels was above 6.00 throughout.
For the molecule `CC(=O)Nc1cc(C(=O)NCc2ccc(OCC(F)(F)F)c(C)c2)ccn1` [Example 788, 2-acetamido-N-(3-methyl-4-(2,2,2-trifluoroethoxy)benzyl)isonicotinamide], the pIC50 at human Nav1.3 channels and on human Nav1.7 channels was above 6.00 each time.
On to `Cc1cc(C(=O)NC(C)c2cnc(OCC(F)(F)F)c(C)c2)nc(NC(=O)C2CC2)n1` (single isomer, unassigned) [Example 228, 2-(cyclopropanecarboxamido)-6-methyl-N-(1-(5-methyl-6-(2,2,2-trifluoroethoxy)pyridin-3-yl)ethyl)pyrimidine-4-carboxamide], for which the pIC50 at human Nav1.3 channels and on human Nav1.7 channels was above 6.00 each time.
For the molecule `Cc1cc(C(=O)NCc2ccc(OCC(F)(F)F)nc2)cc(NC(=O)C(C)C)n1` [Example 483, 2-isobutyramido-6-methyl-N-((6-(2,2,2-trifluoroethoxy)pyridin-3-yl)methyl)isonicotinamide], the pIC50 at human Nav1.3 channels and at human Nav1.7 channels was above 6.00 throughout.
Regarding `Cc1cc(C(=O)NC(C)c2ccc(OCC(F)(F)F)nc2)cc(NC(=O)C(C)C)n1` (single isomer, unassigned) [Example 62, 2-isobutyramido-6-methyl-N-(1-(6-(2,2,2-trifluoroethoxy)pyridin-3-yl)ethyl)isonicotinamide], the pIC50 at human Nav1.3 channels and at human Nav1.7 channels was above 6.00 each time.
As to `CCC(=O)Nc1cc(C(=O)NC(C)c2cccc(OCC(F)(F)F)n2)cc(C)n1` (single isomer, unassigned) [Example 139, 2-methyl-6-propionamido-N-(1-(6-(2,2,2-trifluoroethoxy)pyridin-2-yl)ethyl)isonicotinamide], the pIC50 at human Nav1.3 channels and at human Nav1.7 channels was above 6.00 in each case.
Regarding `Cc1cc(C(=O)NCc2cccc(OC(F)(F)F)c2)cc(NC(=O)C(C)C)n1` [Example 528, 2-isobutyramido-6-methyl-N-(3-(trifluoromethoxy)benzyl)isonicotinamide], the pIC50 on human Nav1.3 channels and at human Nav1.7 channels was above 6.00 throughout.
Regarding `CCC(=O)Nc1cc(C(=O)NCc2cc(C)cc(OC(F)(F)F)c2)cc(C)n1` [Example 600, 2-methyl-N-(3-methyl-5-(trifluoromethoxy)benzyl)-6-propionamidoisonicotinamide], the negative-log IC50 (pIC50) on human Nav1.3 channels and on human Nav1.7 channels was above 6.00 throughout.
Take `COc1nc(OCC(F)(F)F)ccc1CNC(=O)c1ccnc(NC(=O)C2CC2)c1` [Example 147, 2-(cyclopropanecarboxamido)-N-((2-methoxy-6-(2,2,2-trifluoroethoxy)pyridin-3-yl)methyl)isonicotinamide]: the pIC50 at human Nav1.3 channels and on human Nav1.7 channels was above 6.00 each time.
Turning to `O=C(NCc1cnc(OCC(F)(F)F)c(Br)c1)c1ccnc(NC(=O)C2CC2)n1` [Example 898, N-((5-bromo-6-(2,2,2-trifluoroethoxy)pyridin-3-yl)methyl)-2-(cyclopropanecarboxamido)pyrimidine-4-carboxamide], the negative-log IC50 (pIC50) at human Nav1.3 channels and at human Nav1.7 channels was above 6.00 in each case.
With `CCc1cc(CNC(=O)c2cc(C)nc(NC(=O)C(C)C)c2)cnc1OCC(F)F` [Example 911, N-((6-(2,2-difluoroethoxy)-5-ethylpyridin-3-yl)methyl)-2-isobutyramido-6-methylisonicotinamide], the pIC50 at human Nav1.3 channels and on human Nav1.7 channels was above 6.00 in each case.
On to `Cc1cc(C(=O)NC(C)c2cnc(OCC(F)(F)C(F)F)c(C)c2)cc(NC(=O)C(C)C)n1` (single isomer, unassigned) [Example 905, 2-isobutyramido-6-methyl-N-(1-(5-methyl-6-(2,2,3,3-tetrafluoropropoxy)pyridin-3-yl)ethyl)isonicotinamide], for which the pIC50 at human Nav1.3 channels and at human Nav1.7 channels was above 6.00 in each case.
In the case of `Cc1cc(C(C)NC(=O)c2ccnc(NC(=O)C3CC3)c2)cnc1OCC(F)(F)C(F)F` (single isomer, unassigned) [Example 926, 2-(cyclopropanecarboxamido)-N-(1-(5-methyl-6-(2,2,3,3-tetrafluoropropoxy)pyridin-3-yl)ethyl)isonicotinamide], the pIC50 on human Nav1.3 channels and at human Nav1.7 channels was above 6.00 in each case.
For `Cc1cc(C(C)NC(=O)c2ccnc(NC(=O)C(C)C)c2)cnc1OCC(F)F` (single isomer, unassigned) [Example 555, N-(1-(6-(2,2-difluoroethoxy)-5-methylpyridin-3-yl)ethyl)-2-isobutyramidoisonicotinamide], the negative logarithm of the IC50 (pIC50) on human Nav1.3 channels and at human Nav1.7 channels was above 6.00 throughout.
Regarding `Cc1cc(C(=O)NCc2ccc(OCC(F)(F)F)c(C)c2)cc(NC(=O)C(C)C)n1` [Example 794, 2-isobutyramido-6-methyl-N-(3-methyl-4-(2,2,2-trifluoroethoxy)benzyl)isonicotinamide], the negative logarithm of the IC50 (pIC50) at human Nav1.3 channels and at human Nav1.7 channels was above 6.00 in each case.
In the case of `Cc1cc(CNC(=O)c2ccnc(NC(=O)C3CC3)c2)cnc1OCC(F)(F)F` [Example 369, 2-(cyclopropanecarboxamido)-N-((5-methyl-6-(2,2,2-trifluoroethoxy)pyridin-3-yl)methyl)isonicotinamide], the pIC50 on human Nav1.3 channels and at human Nav1.7 channels was above 6.00 each time.
Take `Cc1cc(C(C)NC(=O)c2ccnc(NC(=O)C(C)C)n2)cnc1OCC(F)(F)F` (single isomer, unassigned) [Example 225, 2-isobutyramido-N-(1-(5-methyl-6-(2,2,2-trifluoroethoxy)pyridin-3-yl)ethyl)pyrimidine-4-carboxamide]: the pIC50 at human Nav1.3 channels and at human Nav1.7 channels was above 6.00 in each case.
Regarding `CCC(=O)Nc1cc(C(=O)NCc2ccc(OCC(F)(F)F)nc2)cc(C)n1` [Example 153, 2-methyl-6-propionamido-N-((6-(2,2,2-trifluoroethoxy)pyridin-3-yl)methyl)isonicotinamide], the pIC50 at human Nav1.3 channels and on human Nav1.7 channels was above 6.00 each time.
Turning to `Cc1cc(C(=O)NCc2ccc(OC(F)(F)F)c(C)c2)cc(NC(=O)C(C)C)n1` [Example 809, 2-isobutyramido-6-methyl-N-(3-methyl-4-(trifluoromethoxy)benzyl)isonicotinamide], the pIC50 at human Nav1.3 channels and at human Nav1.7 channels was above 6.00 each time.
In the case of `CCC(=O)Nc1nc(C)cc(C(=O)NCc2ccc(OCC(F)(F)F)nc2OC)n1` [Example 180, N-((2-methoxy-6-(2,2,2-trifluoroethoxy)pyridin-3-yl)methyl)-6-methyl-2-propionamidopyrimidine-4-carboxamide], the negative logarithm of the IC50 (pIC50) at human Nav1.3 channels and at human Nav1.7 channels was above 6.00 throughout.
As for `O=C(NCc1cccc(OC(F)(F)F)c1)c1ccnc(NC(=O)C2CC2)c1` [Example 524, 2-(cyclopropanecarboxamido)-N-(3-(trifluoromethoxy)benzyl)isonicotinamide], the pIC50 at human Nav1.3 channels and at human Nav1.7 channels was above 6.00 each time.
For `CCC(=O)Nc1cc(C(=O)NC(C)c2cccc(OC(F)(F)F)c2)cc(C)n1` (single isomer, unassigned) [Example 134, 2-methyl-6-propionamido-N-(1-(3-(trifluoromethoxy)phenyl)ethyl)isonicotinamide], the pIC50 at human Nav1.3 channels and on human Nav1.7 channels was above 6.00 each time.
On to `Cc1cc(CNC(=O)c2ccnc(NC(=O)C3CC3)c2)ccc1OC(F)(F)F` [Example 806, 2-(cyclopropanecarboxamido)-N-(3-methyl-4-(trifluoromethoxy)benzyl)isonicotinamide], for which the pIC50 at human Nav1.3 channels and at human Nav1.7 channels was above 6.00 throughout.
With `Cc1cc(C(C)NC(=O)c2ccnc(NC(=O)C3CC3)n2)cnc1OCC(F)F` (single isomer, unassigned) [Example 558, 2-(cyclopropanecarboxamido)-N-(1-(6-(2,2-difluoroethoxy)-5-methylpyridin-3-yl)ethyl)pyrimidine-4-carboxamide], the negative-log IC50 (pIC50) at human Nav1.3 channels and on human Nav1.7 channels was above 6.00 each time.
